Source: PubChem BioAssay AID2060884 (Molecular Pharmacology Branch, DTP, NCI, 2025)

Test system: NCI-H929 complex spheroids, viability % test/control
Assay: Anticancer human tumor NCI-H929 cell line growth inhibition [RAS];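 further: compound exposure lasted seven days before viability was read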;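 on viability, T/C: 100% = DMSO vehicle control viability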
Details: for IC50: curve of first compound; for viability, T/C: stronger effect = lower value
Procedure, shortened: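 Multi-cell-type spheroids: tumor cells plus HUVEC endothelial cells and mesenchymal stem cells. RAS-pathway inhibitors were combined with targeted agents, each dosed in half-log steps down from clinical Cmax, or from 10 microM when Cmax was unknown.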

[1] = second compound 0.0316 µM, first compound 0.000949 µM
[2] = second compound 0.0316 µM, first compound 0.003 µM
[3] = second compound 0.0316 µM, first compound 0.00949 µM
[4] = second compound 0.0316 µM, first compound 0.03 µM
[5] = second compound 0.0316 µM, first compound 0.0949 µM
[6] = second compound 0.0316 µM, first compound 0.3 µM
[7] = second compound 0.1 µM, first compound 0.000949 µM
[8] = second compound 0.1 µM, first compound 0.003 µM
[9] = second compound 0.1 µM, first compound 0.00949 µM
[10] = second compound 0.1 µM, first compound 0.03 µM
[11] = second compound 0.1 µM, first compound 0.0949 µM
[12] = second compound 0.1 µM, first compound 0.3 µM
[13] = second compound 0.316 µM, first compound 0.000949 µM
[14] = second compound 0.316 µM, first compound 0.003 µM
[15] = second compound 0.316 µM, first compound 0.00949 µM
[16] = second compound 0.316 µM, first compound 0.03 µM
[17] = second compound 0.316 µM, first compound 0.0949 µM
[18] = second compound 0.316 µM, first compound 0.3 µM
[19] = second compound 1 µM, first compound 0.000949 µM
[20] = second compound 1 µM, first compound 0.003 µM
[21] = second compound 1 µM, first compound 0.00949 µM
[22] = second compound 1 µM, first compound 0.03 µM
[23] = second compound 1 µM, first compound 0.0949 µM
[24] = second compound 1 µM, first compound 0.3 µM

`CCc1c2c(nc3ccc(O)cc13)-c1cc3c(c(=O)n1C2)COC(=O)[C@]3(O)CC` + C#Cc1c(F)ccc2cc(O)cc(-c3ncc4c(N5CC6CCC(C5)N6)nc(OCC56CCCN5CC(F)C6)nc4c3F)c12 was tested, and the IC50 (second compound 0.0316 µM) was 1.88 nM, the IC50 (second compound 0.1 µM) was 1.97 nM and the IC50 (second compound 0.316 µM) was 1.83 nM. The IC50 (second compound 1 µM) was 1.85 nM, the IC50 (second compound 3.16 µM) was 1.83 nM and the IC50 (second compound 10 µM) was 1.7 nM. The viability, T/C [1] was 107%, the viability, T/C [2] was 11.1% and the viability, T/C [3] was 1.08%. It also gave a viability, T/C [4] of 1.06%, a viability, T/C [5] of 2.09% and a viability, T/C [6] of 1.3%. The viability, T/C [7] was 103%, the viability, T/C [8] was 19% and the viability, T/C [9] was 1.39%. The viability, T/C [10] was 3.06%, the viability, T/C [11] was 2.48% and the viability, T/C [12] was 0.71%. For the same molecule, the viability, T/C [13] was 103%, the viability, T/C [14] was 10.5% and the viability, T/C [15] was 1.36%. It also gave a viability, T/C [16] of 2.4%, a viability, T/C [17] of 1.35% and a viability, T/C [18] of 1.02%. For the same molecule, the viability, T/C [19] was 104%, the viability, T/C [20] was 11.1% and the viability, T/C [21] was 1.18%. For the same molecule, the viability, T/C [22] was 1.37%, the viability, T/C [23] was 0.94% and the viability, T/C [24] was 0.76%. For the same molecule, the viability, T/C (second compound 3.16 µM, first compound 0.000949 µM) was 104%, the viability, T/C (second compound 3.16 µM, first compound 0.003 µM) was 9.19% and the viability, T/C (second compound 3.16 µM, first compound 0.00949 µM) was 2.65%. For the same molecule, the viability, T/C (second compound 3.16 µM, first compound 0.03 µM) was 1.69%, the viability, T/C (second compound 3.16 µM, first compound 0.0949 µM) was 1.26% and the viability, T/C (second compound 3.16 µM, first compound 0.3 µM) was 0.49%. The viability, T/C (second compound 10 µM, first compound 0.000949 µM) was 92%, the viability, T/C (second compound 10 µM, first compound 0.003 µM) was 9.27% and the viability, T/C (second compound 10 µM, first compound 0.00949 µM) was 1.7%. It also gave a viability, T/C (second compound 10 µM, first compound 0.03 µM) of 1.05%, a viability, T/C (second compound 10 µM, first compound 0.0949 µM) of 1.19% and a viability, T/C (second compound 10 µM, first compound 0.3 µM) of 0.41%.
Work on `CC1(C)CCC(Nc2ncc(C(F)(F)F)c(-c3c[nH]c4c(P(C)(C)=O)c(C#N)ccc34)n2)CN1` (centres undefined) + C=CC(=O)N1CCN(c2nc(OCC3CCCN3C)nc3c(F)c(-c4nc(N)cc(C)c4C(F)(F)F)c(Cl)cc23)C(C)C1 yielded an IC50 (second compound 0.00316 µM) of 5.68 nM, an IC50 (second compound 0.01 µM) of 6.25 nM and an IC50 (second compound 0.0316 µM) of 6.33 nM. It also gave an IC50 (second compound 0.1 µM) of 6.39 nM, an IC50 (second compound 0.316 µM) of 6.5 nM and an IC50 (second compound 1 µM) of 6.68 nM. The viability, T/C (second compound 0.00316 µM, first compound 0.000949 µM) was 128%, the viability, T/C (second compound 0.00316 µM, first compound 0.003 µM) was 92.7% and the viability, T/C (second compound 0.00316 µM, first compound 0.00949 µM) was 15.7%. It also gave a viability, T/C (second compound 0.00316 µM, first compound 0.03 µM) of 9.6%, a viability, T/C (second compound 0.00316 µM, first compound 0.0949 µM) of 8.73% and a viability, T/C (second compound 0.00316 µM, first compound 0.3 µM) of 5.5%. For the same molecule, the viability, T/C (second compound 0.01 µM, first compound 0.000949 µM) was 125%, the viability, T/C (second compound 0.01 µM, first compound 0.003 µM) was 109% and the viability, T/C (second compound 0.01 µM, first compound 0.00949 µM) was 16.1%. For the same molecule, the viability, T/C (second compound 0.01 µM, first compound 0.03 µM) was 12.3%, the viability, T/C (second compound 0.01 µM, first compound 0.0949 µM) was 9.77% and the viability, T/C (second compound 0.01 µM, first compound 0.3 µM) was 5.17%. For the same molecule, the viability, T/C [1] was 125%, the viability, T/C [2] was 111% and the viability, T/C [3] was 16.7%. The viability, T/C [4] was 11.4%, the viability, T/C [5] was 7.81% and the viability, T/C [6] was 5.16%. For the same molecule, the viability, T/C [7] was 123%, the viability, T/C [8] was 114% and the viability, T/C [9] was 16.6%. It also gave a viability, T/C [10] of 11.9%, a viability, T/C [11] of 7.35% and a viability, T/C [12] of 5.2%. For the same molecule, the viability, T/C [13] was 129%, the viability, T/C [14] was 114% and the viability, T/C [15] was 18.5%. It also gave a viability, T/C [16] of 9.66%, a viability, T/C [17] of 8.16% and a viability, T/C [18] of 5.67%. It also gave a viability, T/C [19] of 132%, a viability, T/C [20] of 125% and a viability, T/C [21] of 17%. It also gave a viability, T/C [22] of 13.4%, a viability, T/C [23] of 9.36% and a viability, T/C [24] of 6.92%.
